Data published in the supplement of paper PMC11208160.

Assay: recombinant barcode read abundance after kanamycin selection (control-corrected) (log10(CPM+1)); higher = more efficient recombination; sequences stand for … in AGTGCAGAGAAAATCGGCCAGTTTTCTCTGCCTGCAGTCCGCATGCCGT…AGATTTATGCAGCGGACTGCCTTTCTCCCAAAGTGATAAACCGGACAGTATCATGGACCGGTTTTCCCGGTAATCCGTATTTGCAAGGTTGGTTTCACT; site = the 11-nt target
Method: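 Pooled E. coli target-specificity screen for the IS621 bridge recombinase. Each library plasmid pairs an 11-nt target (CT core) with a bridge RNA whose target-binding loop (9-nt LTG + 4-nt RTG) is reprogrammed; the rest of the 177-nt WT IS621 bridge RNA scaffold is fixed. The plasmid is co-electroporated with a WT donor plasmid; recombinase is induced with 0.1 mM IPTG and recombinants are selected on kanamycin. Recombinant barcodes are sequenced, converted to CPM, averaged over two biological replicates and corrected by the unselected control CPM. Molecule = full bridge RNA written as DNA: LTG = specificity nt 1-9, RTG = reverse complement of specificity nt 8-11, in the WT scaffold.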
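Note: IS621 recombinase and bridge RNA in Escherichia coli cells.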

| Sequence | recombinant barcode read abundance (log10) |
| --- | --- |
| ACGTCAACTTGGGTTCTAACCTGTTGCCT (site ACGTCAACTAG) | 0.0389 |
| ACGTCAACTTGGGTTCTAACCTGTTGCCT (site ACTTCAACTAG) | 0.0307 |
| ACGTTTCCTTGGGTTCTAACCTGTTGCAT (site AAGTTTCCTAC) | 0.0104 |
| ACGTTTCCTTGGGTTCTAACCTGTTGCAT (site ACGTTTCCTAT) | 0.0487 |
| ACTAAGTCTTGGGTTCTAACCTGTTGCCT (site AATAAGTCTAG) | 0.106 |
| ACTAAGTCTTGGGTTCTAACCTGTTGCCT (site ACTAAGTCTAG) | 0.53 |
| ACTAAGTCTTGGGTTCTAACCTGTTGCCT (site AGTAAGTCTAG) | 0.0249 |
| ACTAAGTCTTGGGTTCTAACCTGTTGCCT (site ATTAAGTCTAG) | 0.0792 |
| ACTACTACTTGGGTTCTAACCTGTTGCCA (site ACTACTACTTG) | 0.0676 |
| ACTACTACTTGGGTTCTAACCTGTTGCCA (site GGTACTACTTG) | 0.433 |
| ACTAGAACTTGGGTTCTAACCTGTTGCAA (site ACTAGAACTTT) | 0.402 |
| ACTAGAACTTGGGTTCTAACCTGTTGCAA (site ACTAGGACTCT) | 0.116 |
| ACTAGCTCTTGGGTTCTAACCTGTTGCTA (site ACTAGCTCTTA) | 0.145 |
| ACTAGCTCTTGGGTTCTAACCTGTTGCTA (site ACTAGGTCTTA) | 0.0229 |
| ACTAGGACTTGGGTTCTAACCTGTTGCAG (site ACTAGAACTTT) | 0.0381 |
| ACTAGGACTTGGGTTCTAACCTGTTGCAG (site ACTAGGACTCT) | 2.49 |
| ACTAGGACTTGGGTTCTAACCTGTTGCGC (site ACTAGGACTAC) | 0.571 |
| ACTAGGACTTGGGTTCTAACCTGTTGCGC (site ACTAGGACTCC) | 0.478 |
| ACTAGGACTTGGGTTCTAACCTGTTGCGC (site ACTAGGACTGC) | 2.3 |
| ACTAGGACTTGGGTTCTAACCTGTTGCGC (site ACTAGGACTTC) | 0.0123 |
| ACTCACCCTTGGGTTCTAACCTGTTGCGG (site ACTCACCCTCC) | 2.62 |

| Sequence | recombinant barcode read abundance (log10) |
| --- | --- |
| ACTCACCCTTGGGTTCTAACCTGTTGCGG (site CTATTAACTTA) | 0.126 |
| ACTCCGTCTTGGGTTCTAACCTGTTGCCT (site ACTCCGTCTAG) | 1.28 |
| ACTCCGTCTTGGGTTCTAACCTGTTGCCT (site ACTGCGTCTAG) | 0.109 |
| ACTCGATCTTGGGTTCTAACCTGTTGCCT (site ACTCGATCTAG) | 0.595 |
| ACTCGATCTTGGGTTCTAACCTGTTGCCT (site AGTCGATCTAA) | 0.0189 |
| ACTCGGCCTTGGGTTCTAACCTGTTGCCT (site ACTCGGCCTAC) | 0.0497 |
| ACTCGGCCTTGGGTTCTAACCTGTTGCCT (site ACTCGGCCTAG) | 1.45 |
| ACTCGTCCTTGGGTTCTAACCTGTTGCTA (site ACTCGTCCTTA) | 0.584 |
| ACTCGTCCTTGGGTTCTAACCTGTTGCTA (site GAGAAGACTAC) | 0.0362 |
| ACTGATACTTGGGTTCTAACCTGTTGCCT (site ACTGATACTAG) | 1.84 |
| ACTGATACTTGGGTTCTAACCTGTTGCCT (site ACTGATCCTAG) | 0.0466 |
| ACTGATACTTGGGTTCTAACCTGTTGCCT (site ACTGATGCTAG) | 0.313 |
| ACTGATACTTGGGTTCTAACCTGTTGCCT (site ACTGATTCTAG) | 0.241 |
| ACTGATCCTTGGGTTCTAACCTGTTGCAT (site ACTGATCCTAT) | 2.35 |
| ACTGATCCTTGGGTTCTAACCTGTTGCAT (site TTCTTAACTCC) | 0.00751 |
| ACTGATCCTTGGGTTCTAACCTGTTGCCT (site ACTGATACTAG) | 0.00756 |
| ACTGATCCTTGGGTTCTAACCTGTTGCCT (site ACTGATCCTAG) | 2.1 |
| ACTGATCCTTGGGTTCTAACCTGTTGCCT (site ACTGATGCTAG) | 0.671 |
| ACTGATCCTTGGGTTCTAACCTGTTGCCT (site ACTGATTCTAG) | 0.0263 |
| ACTGGGTCTTGGGTTCTAACCTGTTGCGT (site ACATGGTCTAC) | 0.254 |
| ACTGGGTCTTGGGTTCTAACCTGTTGCGT (site ACTGGGTCTAC) | 2.66 |

| Sequence | recombinant barcode read abundance (log10) |
| --- | --- |
| ACTGGGTCTTGGGTTCTAACCTGTTGCTT (site ACTGAGTCTAA) | 0.782 |
| ACTGGGTCTTGGGTTCTAACCTGTTGCTT (site ACTGGGTCTAA) | 1.41 |
| ACTGGTACTTGGGTTCTAACCTGTTGCCT (site ACGGGTACTAG) | 0.161 |
| ACTGGTACTTGGGTTCTAACCTGTTGCCT (site ACTGGTACTAG) | 1.22 |
| ACTGGTCCTTGGGTTCTAACCTGTTGCGG (site ACTGGTCCTCC) | 2.93 |
| ACTGGTCCTTGGGTTCTAACCTGTTGCGG (site GACATATCTAA) | 0.0953 |
| ACTTAGACTTGGGTTCTAACCTGTTGCCA (site ACTTAGACTAG) | 0.502 |
| ACTTAGACTTGGGTTCTAACCTGTTGCCA (site ACTTAGACTCG) | 0.408 |
| ACTTAGACTTGGGTTCTAACCTGTTGCCA (site ACTTAGACTGG) | 0.0414 |
| ACTTAGACTTGGGTTCTAACCTGTTGCCA (site ACTTAGACTTG) | 0.363 |
| ACTTAGACTTGGGTTCTAACCTGTTGCCG (site ACTTAGACTAG) | 0.287 |
| ACTTAGACTTGGGTTCTAACCTGTTGCCG (site ACTTAGACTCG) | 1.29 |
| ACTTAGACTTGGGTTCTAACCTGTTGCCG (site ACTTAGACTGG) | 0.159 |
| ACTTAGACTTGGGTTCTAACCTGTTGCCG (site ACTTAGACTTG) | 0.129 |
| ACTTAGTCTTGGGTTCTAACCTGTTGCTA (site ACATAGTCTCA) | 0.178 |
| ACTTAGTCTTGGGTTCTAACCTGTTGCTA (site ACTTAGTCTTA) | 0.277 |
| ACTTGAGCTTGGGTTCTAACCTGTTGCAG (site ACTTGAGCTCT) | 1.48 |
| ACTTGAGCTTGGGTTCTAACCTGTTGCAG (site CACGCTCCTAC) | 0.167 |
| ACTTGTACTTGGGTTCTAACCTGTTGCAT (site ACTTGGACTAT) | 0.0152 |
| ACTTGTACTTGGGTTCTAACCTGTTGCAT (site ACTTGTACTAT) | 1.22 |
| ACTTTACCTTGGGTTCTAACCTGTTGCCT (site ACTTTACCTAG) | 0.188 |

| Sequence | recombinant barcode read abundance (log10) |
| --- | --- |
| ACTTTACCTTGGGTTCTAACCTGTTGCCT (site CCTTTACCTAG) | 0.324 |
| ACTTTACCTTGGGTTCTAACCTGTTGCCT (site GCTTTACCTAG) | 0.0495 |
| ACTTTACCTTGGGTTCTAACCTGTTGCCT (site TCTTTACCTAG) | 0.186 |
| AGAACACCTTGGGTTCTAACCTGTTGCTT (site AGAACACCTAA) | 0.525 |
| AGAACACCTTGGGTTCTAACCTGTTGCTT (site GAGGAGTCTCG) | 0.13 |
| AGAACTACTTGGGTTCTAACCTGTTGCCT (site AGAACTACTAG) | 0.384 |
| AGAACTACTTGGGTTCTAACCTGTTGCCT (site AGGACTACTAG) | 0.162 |
| AGAACTCCTTGGGTTCTAACCTGTTGCGA (site AGAACTCCTTC) | 1.03 |
| AGAACTCCTTGGGTTCTAACCTGTTGCGA (site CTGGAGACTAA) | 0.42 |
| AGAAGATCTTGGGTTCTAACCTGTTGCCT (site AGAAGATCTAG) | 0.706 |
| AGAAGATCTTGGGTTCTAACCTGTTGCCT (site TACCTTACTCT) | 0.0563 |
| AGAAGTCCTTGGGTTCTAACCTGTTGCAG (site AGAAGTCCTCA) | 0.83 |
| AGAAGTCCTTGGGTTCTAACCTGTTGCAG (site AGAAGTCCTCC) | 0.246 |
| AGAAGTCCTTGGGTTCTAACCTGTTGCAG (site AGAAGTCCTCG) | 0.366 |
| AGAAGTCCTTGGGTTCTAACCTGTTGCAG (site AGAAGTCCTCT) | 1.56 |
| AGAATCCCTTGGGTTCTAACCTGTTGCAT (site AGAATCCCTAT) | 1.49 |
| AGAATCCCTTGGGTTCTAACCTGTTGCAT (site ATAAACCCTAT) | 0.0539 |
| AGACAGTCTTGGGTTCTAACCTGTTGCCA (site AGACAGTCTTG) | 0.311 |
| AGACAGTCTTGGGTTCTAACCTGTTGCCA (site GACTGAGCTCC) | 0.0895 |
